Reference: patent publication US12421240B2, “Hydropyrazino[1,2-d][1,4]diazepine compounds for the treatment of autoimmune disease” (Hoffmann-La Roche Inc., priority 2019, dated 2025)

Target: T1, hERG channel (Homo sapiens, UniProt Q12809)
T1 construct: expressed in transfected cells
Assay: hERG channel inhibition assay (patch-clamp, CHO hERG cells)
Format: cell-based
Settings: whole-cell patch-clamp; for IC20: human, CHO cells stably expressing hERG
Procedure: hERG Channel Inhibition Assay
The hERG K^+ channels were cloned in humans and stably expressed in a CHO (Chinese hamster ovary) cell line. CHOhERG cells were used for patch-clamp (voltage-clamp, whole-cell) experiments. Cells were stimulated by a voltage pattern to activate hERG channels and conduct IKhERG currents (rapid delayed outward rectifier potassium current of the hERG channel). After the cells were stabilized for a few minutes, the amplitude and kinetics of IKhERG were recorded at a stimulation frequency of 0.1 Hz (6 bpm). Thereafter, the test compound was added to the preparation at increasing concentrations. For each concentration, an attempt was made to reach a steady-state effect, usually, this was achieved within 3-10 min at which time the next highest concentration was applied. The amplitude and kinetics of IKhERG are recorded in each concentration of the drug which were compared to the control values (taken as 100%). (references: Redfern W S, Carlsson L, Davis A S, Lynch W G, MacKenzie I, Palethorpe S, Siegl P K, Strang I, Sullivan A T, Wallis R, Camm A J, Hammond T G. 2003; Relationships between preclinical cardiac electrophysiology, clinical QT interval prolongation and torsade de pointes for a broad range of drugs: evidence for a provisional safety margin in drug development. Cardiovasc. Res. 58:32-45, Sanguinetti M C, Tristani-Firouzi M. 2006; hERG potassium channels and cardiac arrhythmia. Nature 440:463-469, Webster R, Leishman D, Walker D. 2002; Towards a drug concentration effect relationship for QT prolongation and torsades de pointes. Curr. Opin. Drug Discov. Devel. 5:116-26).

T1 sequence (Q12809 whole entry): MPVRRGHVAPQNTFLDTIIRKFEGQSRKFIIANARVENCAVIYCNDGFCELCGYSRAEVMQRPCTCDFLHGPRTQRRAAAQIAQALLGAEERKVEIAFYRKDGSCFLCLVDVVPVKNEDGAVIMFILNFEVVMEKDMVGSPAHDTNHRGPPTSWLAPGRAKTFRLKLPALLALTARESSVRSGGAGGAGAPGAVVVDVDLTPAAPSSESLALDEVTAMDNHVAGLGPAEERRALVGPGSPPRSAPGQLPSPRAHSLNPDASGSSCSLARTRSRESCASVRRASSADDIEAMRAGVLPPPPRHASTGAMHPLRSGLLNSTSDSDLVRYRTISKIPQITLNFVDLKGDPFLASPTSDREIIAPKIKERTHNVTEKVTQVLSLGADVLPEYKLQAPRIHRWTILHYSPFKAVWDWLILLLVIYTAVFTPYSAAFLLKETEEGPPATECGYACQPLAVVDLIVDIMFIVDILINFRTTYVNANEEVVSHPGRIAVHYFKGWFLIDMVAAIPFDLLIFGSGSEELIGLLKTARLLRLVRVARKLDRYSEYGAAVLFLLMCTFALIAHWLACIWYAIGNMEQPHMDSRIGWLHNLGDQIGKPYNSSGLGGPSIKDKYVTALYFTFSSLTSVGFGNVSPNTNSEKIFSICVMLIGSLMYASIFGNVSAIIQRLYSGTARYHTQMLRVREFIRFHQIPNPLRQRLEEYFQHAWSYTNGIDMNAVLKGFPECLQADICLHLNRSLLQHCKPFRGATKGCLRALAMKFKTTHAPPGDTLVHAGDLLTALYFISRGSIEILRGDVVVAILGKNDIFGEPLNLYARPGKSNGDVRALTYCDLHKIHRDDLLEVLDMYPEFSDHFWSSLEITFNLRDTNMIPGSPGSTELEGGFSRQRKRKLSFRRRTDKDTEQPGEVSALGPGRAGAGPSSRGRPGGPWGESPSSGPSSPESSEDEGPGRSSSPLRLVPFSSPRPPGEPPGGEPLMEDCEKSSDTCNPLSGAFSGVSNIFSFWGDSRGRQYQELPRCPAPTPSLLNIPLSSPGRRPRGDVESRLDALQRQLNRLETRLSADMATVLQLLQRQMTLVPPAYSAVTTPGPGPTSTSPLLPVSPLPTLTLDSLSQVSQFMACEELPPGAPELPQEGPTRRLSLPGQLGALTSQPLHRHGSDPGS

| Structure (SMILES) | IC20 | IC50 |
| --- | --- | --- |
| C[C@@H]1CN(c2ccc(C#N)c3ncccc23)C[C@@H]2CCN(c3cc4c(cn3)CNCC4)CCN21 [Example 7, 5-[(4R,10aS)-4-methyl-8-(5,6,7,8-tetrahydro-2,7-naphthyridin-3-yl)-1,3,4,6,7,9,10,10a-octahydropyrazino[1,2-d][1,4]diazepin-2-yl]quinoline-8-carbonitrile] | > 10 µM | > 20 µM |
| C[C@@H]1CN(c2ccc(C#N)c3ncccc23)C[C@@H]2CCN(Cc3cnc(N4CCNCC4)cn3)CCN21 [Example 15, 5-[(4R,10aS)-4-methyl-8-[(5-piperazin-1-ylpyrazin-2-yl)methyl]-1,3,4,6,7,9,10,10a-octahydropyrazino[1,2-d][1,4]diazepin-2-yl]quinoline-8-carbonitrile] | > 10 µM | > 20 µM |
| C[C@@H]1CN(c2ccc(C#N)c3ncccc23)C[C@@H]2CCN(Cc3cnc4c(c3)CNCC4)CCN21 [Example 10, 5-[(4R,10aS)-4-methyl-8-(5,6,7,8-tetrahydro-1,6-naphthyridin-3-ylmethyl)-1,3,4,6,7,9,10,10a-octahydropyrazino[1,2-d][1,4]diazepin-2-yl]quinoline-8-carbonitrile] | > 10 µM | > 20 µM |
